# From patent US20240158446A1, “CYCLIC COMPOUND HAVING SELECTIVE INHIBITORY ACTION ON KRAS OVER HRAS AND NRAS” (CHUGAI SEIYAKU KABUSHIKI KAISHA, priority 2021, published 2024)
# pIC50, pKd: −log10 of the molar value. Like-named read-outs stand apart in the source and are kept apart here.
# Columns and labels:
# [1] = biological target: GDP-bound HRAS wild-type protein (Homo sapiens, UniProt P01112); assay: Binding to HRAS by surface plasmon resonance (SPR), Single Cycle Kinetics; conditions: SPR, GDP-bound HRAS wild-type protein vs GDP-bound KRAS wild-type protein
# GDP-bound HRAS wild-type protein, sequence (P01112 whole entry): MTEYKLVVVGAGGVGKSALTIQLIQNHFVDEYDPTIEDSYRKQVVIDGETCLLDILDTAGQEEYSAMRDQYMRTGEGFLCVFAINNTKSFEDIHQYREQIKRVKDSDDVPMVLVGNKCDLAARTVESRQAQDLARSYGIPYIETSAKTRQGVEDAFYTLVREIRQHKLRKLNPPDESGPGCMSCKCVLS
# [2] = biological target: GDP-bound NRAS wild-type protein (Homo sapiens, UniProt P01111); assay: Binding to NRAS by surface plasmon resonance (SPR), Single Cycle Kinetics; conditions: SPR, GDP-bound NRAS wild-type protein vs GDP-bound KRAS wild-type protein
# GDP-bound NRAS wild-type protein, sequence (P01111 whole entry): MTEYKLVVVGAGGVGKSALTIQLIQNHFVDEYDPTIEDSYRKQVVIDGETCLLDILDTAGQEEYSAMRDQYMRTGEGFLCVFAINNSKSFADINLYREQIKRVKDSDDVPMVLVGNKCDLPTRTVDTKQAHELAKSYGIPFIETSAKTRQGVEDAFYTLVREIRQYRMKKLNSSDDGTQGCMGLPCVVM
# [3] = tested on: human lung cancer strain NCI-H441;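 also: cell proliferation inhibition after four days measured by CellTiter-Glo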
# [4] = biological target: GDP-bound KRAS wild-type protein (Homo sapiens, UniProt P01116); assay: Binding to KRAS by surface plasmon resonance (SPR), Single Cycle Kinetics; conditions: SPR, Single Cycle Kinetics, GDP-bound KRAS wild-type protein, read-out: KRAS KD
# GDP-bound KRAS wild-type protein, sequence (P01116 whole entry): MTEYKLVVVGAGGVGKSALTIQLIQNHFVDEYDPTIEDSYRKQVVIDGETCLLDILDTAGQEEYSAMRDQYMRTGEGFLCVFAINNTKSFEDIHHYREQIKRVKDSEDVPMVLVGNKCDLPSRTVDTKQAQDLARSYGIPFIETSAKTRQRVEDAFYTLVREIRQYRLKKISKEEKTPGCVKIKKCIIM
SMILES,HRAS/KRAS (ratio of KD value for HRAS to KD value for KRAS) ([1]; KD ratio class),NRAS/KRAS (ratio of KD value for NRAS to KD value for KRAS) ([2]; KD ratio class),pIC50 [3],pKd ([4]; 1:1 binding model),HRAS/KRAS (ratio of KD value for HRAS to KD value for KRAS) [1],NRAS/KRAS (ratio of KD value for NRAS to KD value for KRAS) [2],pKd [4]
CCCCCC[C@H]1C(=O)N[C@@H]([C@@H](C)CC)C(=O)N(C)CC(=O)N(C)[C@H]2C/C=C\CCN(C2=O)[C@@H](Cc2ccc(C(F)(F)F)cc2)C(=O)N(C)CC(=O)N[C@@H](CCc2ccc(Cl)c(Cl)c2)C(=O)N2C[C@H](OCC)C[C@H]2C(=O)NC2(CCC2)C(=O)N(C)[C@@H](C(CC)CC)C(=O)N(C)[C@H](C(=O)N(C)C)CC(=O)N1C [PP1218],A (a compound having 10 or more and less than 20 is denoted as A),AA (a compound having 20 or more is denoted as AA),7.17,9.06,,,
CCO[C@@H]1C[C@H]2C(=O)NC3(CCC3)C(=O)N(C)[C@@H](C(CC)CC)C(=O)N(C)[C@H](C(=O)N(C)C)CC(=O)N(C)[C@@H](CC(C)C)C(=O)N[C@@H]([C@@H](C)CC)C(=O)N(C)CC(=O)N(C)[C@H]3C/C=C\CCN(C3=O)[C@@H](CC3CCCCC3)C(=O)N(C)CC(=O)N[C@@H](CCc3cc(F)c(C(F)(F)F)c(F)c3)C(=O)N2C1 [PP1432],A (a compound having 10 or more and less than 20 is denoted as A),AA (a compound having 20 or more is denoted as AA),7.29,9.21,,,
CCC[C@H]1C(=O)N[C@@H]([C@@H](C)CC)C(=O)N(C)CC(=O)N(C)[C@H]2C/C=C\CCN(C2=O)[C@@H](CC2CCCCC2)C(=O)N(C)CC(=O)N[C@@H](CCc2ccc(C(F)(F)F)c(OC)c2)C(=O)N2C[C@@H](C)C[C@H]2C(=O)N(C)C2(CCC2)C(=O)N(C)[C@@H](C2CCCC2)C(=O)N(C)[C@H](C(=O)N(C)C)CC(=O)N1C [PP2370],,,7.59,,B (a compound having 3 or more and less than 10 is denoted as B),B (a compound having 3 or more and less than 10 is denoted as B),9.27
CC[C@H](C)[C@@H]1NC(=O)[C@H](CC(C)C)N(C)C(=O)C[C@@H](C(=O)N(C)CC)N(C)C(=O)[C@H](C2CCCC2)N(C)C(=O)C2(CC(C)(C)C2)NC(=O)[C@@H]2C[C@H](C)CN2C(=O)[C@H](CCc2ccc(C(F)(F)F)c(OC)c2)NC(=O)CN(C)C(=O)[C@H](Cc2ccc(C)cc2)N2CC/C=C\C[C@@H](C2=O)N(C)C(=O)[C@@H]2CCCN2C1=O [PP2410],,,6.97,,A (a compound having 10 or more and less than 20 is denoted as A),A (a compound having 10 or more and less than 20 is denoted as A),8.96
"CCO[C@@H]1C[C@H]2C(=O)NC3(CCC3)C(=O)N(C)[C@@H](C3CCCC3)C(=O)N(C)[C@H](C(=O)N(C)C)CC(=O)N(C)[C@@H](CC3CC3)C(=O)N[C@@H]([C@@H](C)CC)C(=O)N(C)CC(=O)N(C)[C@H]3C/C=C\CCN(C3=O)[C@@H](Cc3ccc(F)cc3)C(=O)N(C)CC(=O)N[C@@H](CCc3cc(F)c(C(F)(F)F)c(F)c3)C(=O)N2C1 [PP1529, (2S,8S,12R,14S,20S,23S,27S,30S,36S,38Z)-20-cyclopentyl-27-(cyclopropylmethyl)-8-[2-[3,5-difluoro-4-(trifluoromethyl)phenyl]ethyl]-12-ethoxy-2-[(4-fluorophenyl)methyl]-N,N,4,19,22,26,32,35-octamethyl-30-[(1S)-1-methylpropyl]-3,6,9,15,18,21,25,28,31,34,42-undecaoxo-spiro[1,4,7,10,16,19,22,26,29,32,35-undecazatricyclo[34.5.1.0^10,14]dotetracont-38-ene-17,1′-cyclobutane]-23-carboxamide]",B (a compound having 3 or more and less than 10 is denoted as B),A (a compound having 10 or more and less than 20 is denoted as A),7.52,10.09,,,
